{"source": "patent US20150342234A1", "about": "“Steviol Glycoside Compositions Sensory Properties” (Evolva SA, priority 2012, published 2015)", "key": {"[1]": {"system": "panel of 9 tasters (8 trained sensory panellists and 1 Evolve employee)", "assay": "Agreed reference intensity scores for the commercial Reb A reference sample (vocabulary determination)", "assay_type": "in vivo", "details": "agreed approximate intensity score, 0-100 scale; 0.0385% w/v", "description": "(§1) A sensory evaluation of the sample isolated in Example 5 was conducted by a commercial consumer research and sensory analysis company, using a rapid profiling protocol. The sensory profile of the yeast fermented Reb A product was compared to that of a commercially available RebA product by a panel of 9 tasters (8 trained sensory panellists and 1 Evolve employee), over a two hour period. […] Both products were dissolved in Highland Springs bottled mineral water (Highland Spring Group, Blackford, Pertishire, United Kingdom) at 0.0385% w/v, which is approximately equivalent in sweetness to 8% sucrose.\nAn appropriate vocabulary was determined using the commercial Reb A solution as a reference sample. As a starting point, the panel used an attribute vocabulary agreed to for previous sweetener sensory analyses, including sweetness onset time, sweetness build, sweetness, bitterness, etc. Panelists discussed and agreed which of the attributes were present in the reference sample and also agreed on approximate intensity scores on a 0-100 scale for each attribute. Table 15 describes each characteristic that was assessed and how each characteristic was scored for the reference sample."}, "[2]": {"system": "panel of 9 tasters (8 trained sensory panellists and 1 Evolve employee)", "assay": "Sensory evaluation by rapid profiling protocol, blinded samples, two replicates", "assay_type": "in vivo", "details": "for Sweetness build Fl. mean score / Sweetness onset Fl. mean score: after 1st sip, mean of Rep 1 and Rep 2, 0.0385% w/v in mineral water; for Sweetness build Fl. mean score / Sweetness onset Fl. mean score / Acid At. mean score / Artificial sweetness At. mean score / Bitter At. mean score / Overall Sweetness At. mean score / liquorice At. mean score / Acid Fl. mean score / Artificial sweetness Fl. mean score / Bitter Fl. mean score / Liquorice FL mean score / Overall Sweetness Fl. mean score / Body/ thickness Mf. mean score / Mouth coating Mf. mean score / Mouth drying Mf. mean score / Mouth watering Mf. mean score / Tingling Mf. mean score: 0-100 scale; for Acid At. mean score / Artificial sweetness At. mean score / Bitter At. mean score / Overall Sweetness At. mean score / liquorice At. mean score: aftertaste; for Acid At. mean score / Artificial sweetness At. mean score / Bitter At. mean score / Overall Sweetness At. mean score / liquorice At. mean score / Acid Fl. mean score / Artificial sweetness Fl. mean score / Bitter Fl. mean score / Liquorice FL mean score / Overall Sweetness Fl. mean score / Body/ thickness Mf. mean score / Mouth coating Mf. mean score / Mouth drying Mf. mean score / Mouth watering Mf. mean score / Tingling Mf. mean score: mean of 2 replicates, 0.0385% w/v; for Acid Fl. mean score / Artificial sweetness Fl. mean score / Bitter Fl. mean score / Liquorice FL mean score / Overall Sweetness Fl. mean score: flavor; for Acid Fl. mean score / Artificial sweetness Fl. mean score / Bitter Fl. mean score / Liquorice FL mean score / Overall Sweetness Fl. mean score / Body/ thickness Mf. mean score: after second and third sip; for Body/ thickness Mf. mean score / Mouth coating Mf. mean score / Mouth drying Mf. mean score / Mouth watering Mf. mean score / Tingling Mf. mean score: mouthfeel", "description": "as §1\nAfter a break, the panelists were presented one blinded sample of the yeast-derived RebA solution and one blinded sample of the commercial RebA solution. Sample were presented in a balanced order to the panelists. For each blinded sample, panelists carried out the following tasting procedure. Panelists were instructed take one sip of the sample and score the Sweetness Build and Sweetness Onset attributes. A second and third sip of the sample were then taken, and panelists were instructed to score Flavor Attributes and Mouth Feel attribute Body/thickness. Each panelist then took a final sip of the sample and was asked to score Aftertaste and Mouth Sensations at 20 seconds and 120 seconds after the final sip.\nAll panellist scores were entered into a computer using Compusense® data collection software (Compusense, Guelph, Ontario, Canada). Agreed reference scores were marked on the scales as a guide. A rest period of 5 minutes duration was observed between samples and palate cleansers of Carr's® water crackers (Kellogg's, Battle Creek, Mich.) and Highland Spring bottled mineral water applied during this time.\nAfter one replicate of testing had been completed, panelists discussed differences between products. Panelists thought there were some subtle differences between products but no new flavors, off flavors, or mouth sensations were experienced. It was therefore decided to carry out a second replicate testing of the two Reb A samples using the same vocabulary and different blinding codes. The same tasting procedure was used for the second replicate as that used for the first replicate.\nMean scores were calculated for each attribute and sample over the two replicates (Rep 1 and Rep 2). Table 16 provides the mean scores for each attribute. Scores in bold shown a statistically significant difference between the two RebA samples."}, "[3]": {"details": "first block (20 seconds after final sip)"}, "[4]": {"details": "second block (120 seconds after final sip)"}}}
{"smiles": "C=C1C[C@@]23CC[C@H]4[C@@](C)(CCC[C@@]4(C)C(=O)O[C@@H]4O[C@H](CO)[C@@H](O)[C@H](O)[C@H]4O)[C@@H]2CC[C@]1(O[C@@H]1O[C@H](CO)[C@@H](O)[C@H](O[C@@H]2O[C@H](CO)[C@@H](O)[C@H](O)[C@H]2O)[C@H]1O[C@@H]1O[C@H](CO)[C@@H](O)[C@H](O)[C@H]1O)C3", "note": "[Commercial RebA, rebaudioside A]", "values": [{"measurement": "Acidic (Flavor/Aftertaste) Score after 3 d sip (20 sec)", "setting": "[1]", "value": 10}, {"measurement": "Acidic (Flavor/Aftertaste) Score after 3 d sip (2 min)", "setting": "[1]", "value": 10}, {"measurement": "Acidic (Flavor/Aftertaste) Score after 3 d sip (immediate)", "setting": "[1]", "value": 10}, {"measurement": "Artificial sweetness (Flavor/Aftertaste) Score after 3 d sip (20 sec)", "setting": "[1]", "value": 35}, {"measurement": "Artificial sweetness (Flavor/Aftertaste) Score after 3 d sip (2 min)", "setting": "[1]", "value": 20}, {"measurement": "Artificial sweetness (Flavor/Aftertaste) Score after 3 d sip (immediate)", "setting": "[1]", "value": 55}, {"measurement": "Bitter (Flavor/Aftertaste) Score after 3 d sip (20 sec)", "setting": "[1]", "value": 20}, {"measurement": "Bitter (Flavor/Aftertaste) Score after 3 d sip (2 min)", "setting": "[1]", "value": 20}, {"measurement": "Bitter (Flavor/Aftertaste) Score after 3 d sip (immediate)", "setting": "[1]", "value": 10}, {"measurement": "Body/thickness (Mouthfeel) Score after 3 d sip (immediate)", "setting": "[1]", "value": 40}, {"measurement": "Liquorice (Flavor/Aftertaste) Score after 3 d sip (20 sec)", "setting": "[1]", "value": 35}, {"measurement": "Liquorice (Flavor/Aftertaste) Score after 3 d sip (2 min)", "setting": "[1]", "value": 30}, {"measurement": "Liquorice (Flavor/Aftertaste) Score after 3 d sip (immediate)", "setting": "[1]", "value": 30}, {"measurement": "Mouth coating (Mouthfeel) Score after 3 d sip (20 sec)", "setting": "[1]", "value": 30}, {"measurement": "Mouth coating (Mouthfeel) Score after 3 d sip (2 min)", "setting": "[1]", "value": 30}, {"measurement": "Mouth drying (Mouthfeel) Score after 3 d sip (20 sec)", "setting": "[1]", "value": 35}, {"measurement": "Mouth drying (Mouthfeel) Score after 3 d sip (2 min)", "setting": "[1]", "value": 35}, {"measurement": "Mouth watering (Mouthfeel) Score after 3 d sip (20 sec)", "setting": "[1]", "value": 0}, {"measurement": "Mouth watering (Mouthfeel) Score after 3 d sip (2 min)", "setting": "[1]", "value": 20}, {"measurement": "Overall Sweetness (Flavor/Aftertaste) Score after 3 d sip (20 sec)", "setting": "[1]", "value": 50}, {"measurement": "Overall Sweetness (Flavor/Aftertaste) Score after 3 d sip (2 min)", "setting": "[1]", "value": 50}, {"measurement": "Overall Sweetness (Flavor/Aftertaste) Score after 3 d sip (immediate)", "setting": "[1]", "value": 70}, {"measurement": "Sweetness build (Flavor) Score after 1st sip", "setting": "[1]", "value": 30}, {"measurement": "Sweetness onset (Flavor) Score after 1st sip", "setting": "[1]", "value": 5}, {"measurement": "Tingling (Mouthfeel) Score after 3 d sip (20 sec)", "setting": "[1]", "value": 10}, {"measurement": "Tingling (Mouthfeel) Score after 3 d sip (2 min)", "setting": "[1]", "value": 5}, {"measurement": "Sweetness build Fl. mean score", "setting": "[2]", "value": 34.5}, {"measurement": "Sweetness onset Fl. mean score", "setting": "[2]", "value": 5.6}, {"measurement": "Acid At. mean score", "setting": "[2]; [3]", "value": 8.5}, {"measurement": "Artificial sweetness At. mean score", "setting": "[2]; [3]", "value": 40.8}, {"measurement": "Bitter At. mean score", "setting": "[2]; [3]", "value": 22.1}, {"measurement": "Overall Sweetness At. mean score", "setting": "[2]; [3]", "value": 52.8}, {"measurement": "liquorice At. mean score", "setting": "[2]; [3]", "value": 21.1}, {"measurement": "Acid At. mean score", "setting": "[2]; [4]", "value": 8.9}, {"measurement": "Artificial sweetness At. mean score", "setting": "[2]; [4]", "value": 32.6}, {"measurement": "Bitter At. mean score", "setting": "[2]; [4]", "value": 20.6}, {"measurement": "Overall Sweetness At. mean score", "setting": "[2]; [4]", "value": 49.6}, {"measurement": "liquorice At. mean score", "setting": "[2]; [4]", "value": 16.3}, {"measurement": "Acid Fl. mean score", "setting": "[2]", "value": 10.6}, {"measurement": "Artificial sweetness Fl. mean score", "setting": "[2]", "value": 54.0}, {"measurement": "Bitter Fl. mean score", "setting": "[2]", "value": 20.7}, {"measurement": "Liquorice FL mean score", "setting": "[2]", "value": 18.0}, {"measurement": "Overall Sweetness Fl. mean score", "setting": "[2]", "value": 61.7}, {"measurement": "Body/ thickness Mf. mean score", "setting": "[2]", "value": 39.4}, {"measurement": "Mouth coating Mf. mean score", "setting": "[2]; [3]", "value": 27.4}, {"measurement": "Mouth drying Mf. mean score", "setting": "[2]; [3]", "value": 40.1}, {"measurement": "Mouth watering Mf. mean score", "setting": "[2]; [3]", "value": 10.9}, {"measurement": "Tingling Mf. mean score", "setting": "[2]; [3]", "value": 13.0}, {"measurement": "Mouth coating Mf. mean score", "setting": "[2]; [4]", "value": 26.3}, {"measurement": "Mouth drying Mf. mean score", "setting": "[2]; [4]", "value": 42.7}, {"measurement": "Mouth watering Mf. mean score", "setting": "[2]; [4]", "value": 14.7}, {"measurement": "Tingling Mf. mean score", "setting": "[2]; [4]", "value": 12.9}, {"measurement": "sweetness build score compared with the yeast derived RebA sample", "setting": "[2]; time to peak in sweetness intensity, 95% confidence level", "value": "significantly longer"}]}
{"smiles": "C=C1C[C@@]23CC[C@H]4[C@@](C)(CCC[C@@]4(C)C(=O)O[C@@H]4O[C@H](CO)[C@@H](O)[C@H](O)[C@H]4O)[C@@H]2CC[C@]1(O[C@@H]1O[C@H](CO)[C@@H](O)[C@H](O[C@@H]2O[C@H](CO)[C@@H](O)[C@H](O)[C@H]2O)[C@H]1O[C@@H]1O[C@H](CO)[C@@H](O)[C@H](O)[C@H]1O)C3", "note": "[Yeast derived Reb A, rebaudioside A]", "values": [{"measurement": "Sweetness build Fl. mean score", "setting": "[2]", "value": 30.2}, {"measurement": "Sweetness onset Fl. mean score", "setting": "[2]", "value": 5.5}, {"measurement": "Acid At. mean score", "setting": "[2]; [3]", "value": 6.9}, {"measurement": "Artificial sweetness At. mean score", "setting": "[2]; [3]", "value": 33.8}, {"measurement": "Bitter At. mean score", "setting": "[2]; [3]", "value": 17.2}, {"measurement": "Overall Sweetness At. mean score", "setting": "[2]; [3]", "value": 49.6}, {"measurement": "liquorice At. mean score", "setting": "[2]; [3]", "value": 19.2}, {"measurement": "Acid At. mean score", "setting": "[2]; [4]", "value": 5.5}, {"measurement": "Artificial sweetness At. mean score", "setting": "[2]; [4]", "value": 30.0}, {"measurement": "Bitter At. mean score", "setting": "[2]; [4]", "value": 18.1}, {"measurement": "Overall Sweetness At. mean score", "setting": "[2]; [4]", "value": 46.2}, {"measurement": "liquorice At. mean score", "setting": "[2]; [4]", "value": 16.2}, {"measurement": "artificial sweetness score compared with the commercial RebA sample", "setting": "[2]; at 20 seconds", "value": "significantly less"}, {"measurement": "bitter score compared with the commercial RebA sample", "setting": "[2]; at 20 seconds, not statistically significantly different", "value": "lower"}, {"measurement": "Acid Fl. mean score", "setting": "[2]", "value": 8.3}, {"measurement": "Artificial sweetness Fl. mean score", "setting": "[2]", "value": 41.8}, {"measurement": "Bitter Fl. mean score", "setting": "[2]", "value": 11.8}, {"measurement": "Liquorice FL mean score", "setting": "[2]", "value": 17.2}, {"measurement": "Overall Sweetness Fl. mean score", "setting": "[2]", "value": 58.5}, {"measurement": "Body/ thickness Mf. mean score", "setting": "[2]", "value": 37.1}, {"measurement": "Mouth coating Mf. mean score", "setting": "[2]; [3]", "value": 28.9}, {"measurement": "Mouth drying Mf. mean score", "setting": "[2]; [3]", "value": 40.8}, {"measurement": "Mouth watering Mf. mean score", "setting": "[2]; [3]", "value": 10.1}, {"measurement": "Tingling Mf. mean score", "setting": "[2]; [3]", "value": 9.8}, {"measurement": "Mouth coating Mf. mean score", "setting": "[2]; [4]", "value": 24.7}, {"measurement": "Mouth drying Mf. mean score", "setting": "[2]; [4]", "value": 39.8}, {"measurement": "Mouth watering Mf. mean score", "setting": "[2]; [4]", "value": 15.7}, {"measurement": "Tingling Mf. mean score", "setting": "[2]; [4]", "value": 8.8}, {"measurement": "off flavors", "setting": "[2]; panellist reports", "value": "no reports of off flavors"}]}
